For one experiment, the system named is T cells (Th1 skewing). The experiment in a line: Th1 skewing culture. The class given is cell-based. To be noted: BTR with IL-2, IL-12, anti-IL-4 cocktail. As for the experimental part:
To investigate the molecular mechanism of action of PDAC-mediated suppression of Th1 skewing, IDO siRNA was transiently transfected into PDACs by standard techniques. Th1 skewing was carried out as for the BTR reactions (see above) but supplemented with an additional Th1 skewing cytokine cocktail containing IL-2 (200 IU/mL), IL-12 (2 ng/mL) and anti-IL-4 (0.4 μg/ml).

The target in experiment [1] is T1, indoleamine 2,3-dioxygenase (IDO) (Homo sapiens, UniProt P14902).
T1 construct: endogenous in cells; host or cells: PDACs (placental stem cells) co-cultured with T cells in the BTR assay
The experiment in a line: BTR T cell proliferation assay with IDO blockade. It counts as cell-based. As to conditions: 256 μM.
Text: To investigate the mechanism of action of PDAC-mediated suppression of T cell proliferation, pharmacological inhibitors or neutralizing antibodies were used to block the activity of prostaglandin E2 (PGE2), inducible nitric oxide synthase (iNOS), transforming growth factor beta (TGF-β), interleukin-10 (IL-10) and IDO in an in vitro T cell proliferation assay (BTR).

The subject of experiment [2] is chick chorioallantoic membrane (CAM). The experiment in a line: CAM angiogenesis assay using PDACs. As to conditions: P<0.001, Student's t test. It counts as in vivo. As to the method: Two separate CAM assays were conducted. In the first CAM assay, intact cell pellets from different preparations of PDAC were evaluated. In the second CAM assay, supernatants of different PDAC preparations were evaluated. Fibroblast growth factor (bFGF) was used as a positive control, and MDA-MB-231 human breast cancer cells as a reference, vehicle and medium controls were used as negative controls. The endpoint of the study was to determine the blood vessel densities of all treatment and control groups.
PDACs, prepared as described above and cryopreserved, were used. PDACs were thawed for dosing and the number of cells dosed on the CAM was determined. […]
CAM Assay Procedure: Fresh fertile eggs were incubated for 3 days in a standard egg incubator at 37° C. for 3 days. […] On Day 8, embryos were removed from the incubator and kept at room temperature while blood vessel density was determined under each “O” ring using an image capturing system at a magnification of 100×.
Blood vessel density was measured by an angiogenesis scoring system that used arithmetic numbers 0 to 5, or exponential numbers 1 to 32, to indicate the number of blood vessels present at the treatment sites on the CAM. […] The percent of inhibition at each dosing site was calculated using the score recorded for that site divided by the mean score obtained from control samples for each individual experiment. […]

The test system is the same in experiment [3]. The experiment in a line: CAM angiogenesis assay using PDAC supernatants. It counts as in vivo. To be noted: supernatant mixed with MATRIGEL 1:1; PDAC supernatants P<0.01, P<0.001, P<0.02; bFGF P<0.001. An excerpt: Supernatant samples from MDA-MB-231 cells and PDACs were used in a second CAM assay as described above. bFGF and MDA-MB-231 supernatants were used as positive controls, medium and vehicle were used as negative controls.
Study Design: The study included 5 groups with 10 embryos in each group. The design of the study is described in Table 4.
CAM Assay Procedure: The assay procedure was the same as described in section 6.3.1, above. The only difference was that supernatant from each stem cell preparation or from MDA-MB-231 cells was used as test material. For dosing, each supernatant was mixed with MATRIGEL™ (1:1 by volume) and […] of the mixture was dosed to each embryo.

T1 sequence (P14902 whole entry): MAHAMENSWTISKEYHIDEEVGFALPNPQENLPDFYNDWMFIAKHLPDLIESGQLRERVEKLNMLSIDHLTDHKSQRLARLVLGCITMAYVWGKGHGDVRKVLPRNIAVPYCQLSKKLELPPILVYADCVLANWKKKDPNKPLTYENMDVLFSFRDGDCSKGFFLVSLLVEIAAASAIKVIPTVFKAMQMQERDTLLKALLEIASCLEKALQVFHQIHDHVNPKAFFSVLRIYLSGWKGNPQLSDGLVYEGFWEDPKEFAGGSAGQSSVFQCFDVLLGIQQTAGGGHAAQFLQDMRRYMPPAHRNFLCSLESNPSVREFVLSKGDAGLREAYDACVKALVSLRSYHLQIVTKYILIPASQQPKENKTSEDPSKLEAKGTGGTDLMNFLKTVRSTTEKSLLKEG

For the molecule `Cn1cc(C[C@H](N)C(=O)O)c2ccccc21` [1 MT, 1-methyl tryptophan], in the experiment on T cells (Th1 skewing), the “rescue of PDAC-mediated suppression of Th1 skewing” value is reported as “completely rescued”.
Regarding `N[C@@H](Cc1c[nH]c2ccccc12)C(=O)O` [L-Trp, L-trptophan], in the experiment with T cells (Th1 skewing), the “rescue of PDAC-mediated suppression of Th1 skewing” value was “completely rescued”. Besides, the “rescue of T cell proliferation from PDAC-mediated suppression” value in experiment [1] is “substantially rescued”.
As to “bFGF: basic fibroblast growth factor (positive control)”, the “blood vessel density score versus vehicle control CAMs” value in experiment [2] is reported as “statistically significantly higher”. In addition, in experiment [3], the “blood vessel induction versus vehicle controls” value is given as “potent induction of blood vessel formation”.
